In patent publication US8748417B2, “Amino-pyrrolidine-azetidine diamides as monoacylglycerol lipase inhibitors” (Janssen Pharmaceutica, NV, priority 2010, dated 2014):

Target: T1, purified wild type MGL (wt-MGLL 6H-11-313) (Homo sapiens, UniProt Q99685)
T1 construct: purified wild type MGL (wt-MGLL 6H-11-313)
T1 sequence (Q99685 1-303): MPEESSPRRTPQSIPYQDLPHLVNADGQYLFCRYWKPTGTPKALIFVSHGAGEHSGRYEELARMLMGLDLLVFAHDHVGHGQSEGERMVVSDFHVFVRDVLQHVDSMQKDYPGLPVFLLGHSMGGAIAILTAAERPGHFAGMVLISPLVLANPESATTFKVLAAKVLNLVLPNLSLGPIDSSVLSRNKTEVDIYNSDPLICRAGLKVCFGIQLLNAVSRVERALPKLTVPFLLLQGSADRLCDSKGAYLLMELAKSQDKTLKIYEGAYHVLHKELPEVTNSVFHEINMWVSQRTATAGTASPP
Test: MGL enzyme activity assay (4MU-B cleavage), wild type MGL
Assay type: biochemical
Settings: wild type MGL 5 nM, 4MU-B 10 μM, 37° C.; read-out: MGL wild type inh IC50
Method: All rate-based assays were performed in black 384-well polypropylene PCR microplates (Abgene) in a total volume of 30 μL. Substrate 4-methylumbelliferyl butyrate (4MU-B; Sigma) and either purified mutant MGL (mut-MGLL 11-313 L179S L186S) or purified wild type MGL (wt-MGLL 6H-11-313) were diluted separately into 20 mM PIPES buffer (pH=7.0), containing 150 mM NaCl and 0.001% Tween 20. Compounds of Formula (I) were pre-dispensed (50 nL) into the assay plate using a Cartesian Hummingbird prior to adding 4MU-B (25 μL of 1.2× solution to a final concentration of 10 μM) followed by enzyme (5 μL of a 6× solution to a final concentration of 5 nM) to initiate the reaction. Final compound concentrations ranged from 17 to 0.0003 μM. The fluorescence change due to 4MU-B cleavage was monitored with excitation and emission wavelengths of 335 and 440 nm, respectively, and a bandwidth of 10 nm (Safire^2, Tecan) at 37° C. for 5 min.
The IC50 values for the following compounds were determined using Microsoft Office Excel from a fit of the equation to the concentration-response plot of the fractional activity as a function of inhibitor concentration.

SMILES | IC50
O=C(c1ccc2c(-c3ccccc3)ncnc2c1)N1CC(N[C@H]2CCN(C(=O)c3cscn3)C2)C1 [Cpd 112, (3S)-N-{1-[(4-Phenylquinazolin-7-yl)carbonyl]azetidin-3-yl}-1-(1,3-thiazol-4-ylcarbonyl)pyrrolidin-3-amine] | 1660 nM
O=C(c1ccc2c(cnn2-c2ccccc2)c1)N1CC(N[C@H]2CCN(C(=O)c3nccs3)C2)C1 [Cpd 120, (3S)-N-{1-[(1-Phenyl-1H-indazol-5-yl)carbonyl]azetidin-3-yl}-1-(1,3-thiazol-2-ylcarbonyl)pyrrolidin-3-amine] | 372 nM
Cc1c(C(=O)N2CC(N[C@H]3CCN(C(=O)c4nccs4)C3)C2)sc2ccc(-c3ccc(C(F)(F)F)cc3)cc12 [Cpd 91, (3S)-N-[1-({3-Methyl-5-[4-(trifluoromethyl)phenyl]-1-benzothiophen-2-yl}carbonyl)azetidin-3-yl]-1-(1,3-thiazol-2-ylcarbonyl)pyrrolidin-3-amine] | < 5 nM
Cc1c(C(=O)N2CC(N[C@H]3CCN(C(=O)c4cscn4)C3)C2)sc2ccc(-c3cccc(C(F)(F)F)c3)cc12 [Cpd 125, (3S)-N-[1-({3-Methyl-5-[3-(trifluoromethyl)phenyl]-1-benzothiophen-2-yl}carbonyl)azetidin-3-yl]-1-(1,3-thiazol-4-ylcarbonyl)pyrrolidin-3-amine] | < 5 nM
Cn1nc(-c2cccc(F)c2)c2cc(C(=O)N3CC(N[C@H]4CCN(C(=O)c5nccs5)C4)C3)ccc21 [Cpd 199, (3S)-N-(1-{[3-(3-Fluorophenyl)-1-methyl-1H-indazol-5-yl]carbonyl}azetidin-3-yl)-1-(1,3-thiazol-2-ylcarbonyl)pyrrolidin-3-amine] | 107 nM
Cc1c(C(=O)N2CC(N(C=O)[C@H]3CCN(C(=O)c4cscn4)C3)C2)sc2ccc(Cl)cc12 [Cpd 83, N-{1-[(5-Chloro-3-methyl-1-benzothiophen-2-yl)carbonyl]azetidin-3-yl}-N-[(3S)-1-(1,3-thiazol-4-ylcarbonyl)pyrrolidin-3-yl]formamide] | 2440 nM
O=C(c1ccc2nc(-c3ccccc3)sc2c1)N1CC(N[C@H]2CCN(C(=O)c3ccccc3)C2)C1 [Cpd 157, (3S)-N-{1-[(2-Phenyl-1,3-benzothiazol-6-yl)carbonyl]azetidin-3-yl}-1-(phenylcarbonyl)pyrrolidin-3-amine] | 211 nM
O=C(c1ccccc1)N1CC[C@H](NC2CN(C(=O)c3cc4cc(-c5ccccc5)ccc4o3)C2)C1 [Cpd 121, (3S)-N-{1-[(5-Phenyl-1-benzofuran-2-yl)carbonyl]azetidin-3-yl}-1-(phenylcarbonyl)pyrrolidin-3-amine] | 1750 nM
Cn1nc(-c2cccc(F)c2)c2cc(C(=O)N3CC(N[C@H]4CCN(C(=O)c5cscn5)C4)C3)ccc21 [Cpd 200, (3S)-N-(1-{[3-(3-Fluorophenyl)-1-methyl-1H-indazol-5-yl]carbonyl}azetidin-3-yl)-1-(1,3-thiazol-4-ylcarbonyl)pyrrolidin-3-amine] | 843 nM
O=C(c1ccc2c(cnn2-c2ccccc2)c1)N1CC(N[C@H]2CCN(C(=O)c3ccccc3)C2)C1 [Cpd 156, (3S)-1-(Phenylcarbonyl)-N-{1-[(1-phenyl-1H-indazol-5-yl)carbonyl]azetidin-3-yl}pyrrolidin-3-amine] | 482 nM
O=C(c1ccccc1)N1CC[C@H](NC2CN(C(=O)c3sc4cc(Cl)ccc4c3C(F)(F)F)C2)C1 [Cpd 182, (3S)-N-(1-{[6-Chloro-3-(trifluoromethyl)-1-benzothiophen-2-yl]carbonyl}azetidin-3-yl)-1-(phenylcarbonyl)pyrrolidin-3-amine] | 217 nM
O=C(c1ccc2nc(-c3ccccc3)sc2c1)N1CC(N[C@H]2CCN(C(=O)c3nccs3)C2)C1 [Cpd 133, (3S)-N-{1-[(2-Phenyl-1,3-benzothiazol-6-yl)carbonyl]azetidin-3-yl}-1-(1,3-thiazol-2-ylcarbonyl)pyrrolidin-3-amine] | 145 nM
Cn1nc(-c2ccccc2)c2cc(C(=O)N3CC(N[C@H]4CCN(C(=O)c5ccccc5)C4)C3)ccc21 [Cpd 197, (3S)-N-{1-[(1-Methyl-3-phenyl-1H-indazol-5-yl)carbonyl]azetidin-3-yl}-1-(phenylcarbonyl)pyrrolidin-3-amine] | 199 nM
O=C(c1ccccc1)N1CC[C@H](NC2CN(C(=O)c3sc4cc(C(F)(F)F)ccc4c3C3CC3)C2)C1 [Cpd 75, (3S)-N-(1-{[3-Cyclopropyl-6-(trifluoromethyl)-1-benzothiophen-2-yl]carbonyl}azetidin-3-yl)-1-(phenylcarbonyl)pyrrolidin-3-amine] | 210 nM
Cc1cc(-c2cccc(C(F)(F)F)c2)ccc1C(=O)N1CC(N[C@H]2CCN(C(=O)c3ccccc3)C2)C1 [Cpd 153, (3S)-N-(1-{[3-Methyl-3′-(trifluoromethyl)biphenyl-4-yl]carbonyl}azetidin-3-yl)-1-(phenylcarbonyl)pyrrolidin-3-amine] | 176 nM
Cn1nc(-c2ccc(F)cc2)c2cc(C(=O)N3CC(N[C@H]4CCN(C(=O)c5nccs5)C4)C3)ccc21 [Cpd 209, (3S)-N-(1-{[3-(4-Fluorophenyl)-1-methyl-1H-indazol-5-yl]carbonyl}azetidin-3-yl)-1-(1,3-thiazol-2-ylcarbonyl)pyrrolidin-3-amine] | 279 nM
Cc1ccc2c(C(F)(F)F)c(C(=O)N3CC(N[C@H]4CCN(C(=O)c5cscn5)C4)C3)sc2c1 [Cpd 185, (3S)-N-(1-{[6-Methyl-3-(trifluoromethyl)-1-benzothiophen-2-yl]carbonyl}azetidin-3-yl)-1-(1,3-thiazol-4-ylcarbonyl)pyrrolidin-3-amine] | 488 nM
Cc1nc(-c2cccc(Cl)c2)sc1C(=O)N1CC(N[C@H]2CCN(C(=O)c3nccs3)C2)C1 [Cpd 136, (3S)-N-(1-{[2-(3-Chlorophenyl)-4-methyl-1,3-thiazol-5-yl]carbonyl}azetidin-3-yl)-1-(1,3-thiazol-2-ylcarbonyl)pyrrolidin-3-amine] | 165 nM
O=C(c1ccccc1)N1CC[C@H](NC2CN(C(=O)c3sc4cc(F)ccc4c3C3CCC3)C2)C1 [Cpd 79, (3S)-N-{1-[(3-Cyclobutyl-6-fluoro-1-benzothiophen-2-yl)carbonyl]azetidin-3-yl}-1-(phenylcarbonyl)pyrrolidin-3-amine] | 281 nM
O=C(c1ccc2c(-c3ccc(C(F)(F)F)cc3)ncnc2c1)N1CC(N[C@H]2CCN(C(=O)c3ccccc3)C2)C1 [Cpd 109, (3S)-1-(Phenylcarbonyl)-N-[1-({4-[4-(trifluoromethyl)phenyl]quinazolin-7-yl}carbonyl)azetidin-3-yl]pyrrolidin-3-amine] | 857 nM
Cc1ccc2sc(C(=O)N3CC(N[C@H]4CCN(C(=O)c5cscn5)C4)C3)c(C(F)(F)F)c2c1 [Cpd 184, (3S)-N-(1-{[5-Methyl-3-(trifluoromethyl)-1-benzothiophen-2-yl]carbonyl}azetidin-3-yl)-1-(1,3-thiazol-4-ylcarbonyl)pyrrolidin-3-amine] | 205 nM
Cc1c(C(=O)N2CC(N(C=O)[C@H]3CCN(C(=O)c4ccccc4)C3)C2)sc2ccc(Cl)cc12 [Cpd 81, N-[1-[(5-Chloro-3-methyl-1-benzothiophen-2-yl)carbonyl]azetidin-3-yl]-N-[(3S)-1-(phenylcarbonyl)pyrrolidin-3-yl]formamide] | 4880 nM
O=C(c1ccc2c(-c3ccc(C(F)(F)F)cc3)ncnc2c1)N1CC(N[C@H]2CCN(C(=O)c3nccs3)C2)C1 [Cpd 111, (3S)-1-(1,3-Thiazol-2-ylcarbonyl)-N-[1-({4-[4-(trifluoromethyl)phenyl]quinazolin-7-yl}carbonyl)azetidin-3-yl]pyrrolidin-3-amine] | 179 nM
O=C(c1cscn1)N1CC[C@H](NC2CN(C(=O)c3cc4cc(Br)ccc4s3)C2)C1 [Cpd 98, (3S)-N-{1-[(5-Bromo-1-benzothiophen-2-yl)carbonyl]azetidin-3-yl}-1-(1,3-thiazol-4-ylcarbonyl)pyrrolidin-3-amine] | 3100 nM
Cn1nc(-c2ccccc2)c2cc(C(=O)N3CC(N[C@H]4CCN(C(=O)c5cscn5)C4)C3)ccc21 [Cpd 196, (3S)-N-{1-[(1-Methyl-3-phenyl-1H-indazol-5-yl)carbonyl]azetidin-3-yl}-1-(1,3-thiazol-4-ylcarbonyl)pyrrolidin-3-amine] | 298 nM
O=C(c1ccc2c(-c3ccccc3)ncnc2c1)N1CC(N[C@H]2CCN(C(=O)c3nccs3)C2)C1 [Cpd 110, (3S)-N-{1-[(4-Phenylquinazolin-7-yl)carbonyl]azetidin-3-yl}-1-(1,3-thiazol-2-ylcarbonyl)pyrrolidin-3-amine] | 311 nM
O=C(c1cscn1)N1CC[C@H](NC2CN(C(=O)c3cc4ccc(C(F)(F)F)cc4s3)C2)C1 [Cpd 139, (3S)-1-(1,3-Thiazol-4-ylcarbonyl)-N-(1-{[6-(trifluoromethyl)-1-benzothiophen-2-yl]carbonyl}azetidin-3-yl)pyrrolidin-3-amine] | 311 nM
